Measured values from patent publication US8901138B2, “Sulfoximine substituted quinazolines for pharmaceutical compositions” (Boehringer Ingelheim International GmbH, priority 2012, dated 2014).

biological target: T1, MNK2a (Homo sapiens, UniProt Q9HBH9); test: MNK2a in vitro kinase assay (assay 1), ADP-Glo; assay type: biochemical; settings: preactivated GST-MNK2a, 20 μM ATP, read-out: MNK2 IC50
T1 construct: made in house
Experimental: A. MNK2a In Vitro Kinase Assay (Assay 1)
ASSAY SETUP: The inhibition of kinase activity of MNK2a was assessed using preactivated GST-MNK2a. The white, 384-well OptiPlate F plates were purchased from Perkin Elmer. The ADP-Glo Kinase Assay (including ultra pure ATP) was purchased from Promega (V9103). Activated MNK2a was obtained as described in WO2011/104340. The unlabeled eIF4E peptide (NH2-[…]—CONH2) (SEQ ID NO: 1), differing from Seq. ID No. 5 of WO 2011/104340 by the C-terminal —CONH2 group, was purchased from Thermo Fisher Scientific. All other materials were of highest grade commercially available. Compounds are tested in either serial dilutions or single dose concentrations. The compound stock solutions are 10 mM in 100% DMSO The serial compound dilutions are prepared in 100% DMSO followed by 1:27.3 intermediate dilution in assay buffer. The final DMSO concentration in assay will be <3%. In the 384-well plates 3 μl of test compound from the intermediate dilution is mixed with 4 μl of the activated MNK2 enzyme (final concentration of 10 nM) and 4 μl of the peptide (final concentration of 25 μM)/ultra pure ATP (final concentration of 20 μM), all dissolved in assay buffer. This step is followed by an incubation time of 90 min, then 10 μl of ADP Glo reagent are added, followed by 40 min of incubation. Then 20 μl of kinase detection reagent are admixed. The plates are sealed and after an incubation period of 30 min, the luminescence signal is measured in an Envision reader to determine the amount of produced ADP. All incubation steps are performed at room temperature. The assay buffer consists of 20 mM HEPES, 2 mM DTT, 0.01% BSA, 20 mM MgCl2 and 0.1% Pluronic F-127.
Each assay microtiter plate contains wells with vehicle controls instead of compound (1% DMSO in water) as reference for the high signal (100% CTL, high signal), and wells containing a potent MNK2 inhibitor (final 20 μM, 1% DMSO) as reference for low signal (0% CTL, low signal).
The luminescent signal generated is proportional to the ADP concentration produced and is correlated with activated MNK2 activity. The analysis of the data is performed by the calculation of the percentage of ATP consumption of activated MNK2 in the presence of the test compound compared to the consumption of ATP in the presence of activated MNK2 without compound. (RLU(sample)−RLU(low control))*100/(RLU(high value)−RLU(low control)) [RLU=relative luminescence units]
An inhibitor of the MNK2 enzyme will give values between 100% CTL (no inhibition) and 0% CTL (complete inhibition). Values of more than 100% CTL are normally related to compound/sample specific physico-chemical properties (e.g. solubility, light absorbance, fluorescence).
IC50 values based on dose response curves are calculated with the AssayExplorer software.

T1 sequence (Q9HBH9 whole entry): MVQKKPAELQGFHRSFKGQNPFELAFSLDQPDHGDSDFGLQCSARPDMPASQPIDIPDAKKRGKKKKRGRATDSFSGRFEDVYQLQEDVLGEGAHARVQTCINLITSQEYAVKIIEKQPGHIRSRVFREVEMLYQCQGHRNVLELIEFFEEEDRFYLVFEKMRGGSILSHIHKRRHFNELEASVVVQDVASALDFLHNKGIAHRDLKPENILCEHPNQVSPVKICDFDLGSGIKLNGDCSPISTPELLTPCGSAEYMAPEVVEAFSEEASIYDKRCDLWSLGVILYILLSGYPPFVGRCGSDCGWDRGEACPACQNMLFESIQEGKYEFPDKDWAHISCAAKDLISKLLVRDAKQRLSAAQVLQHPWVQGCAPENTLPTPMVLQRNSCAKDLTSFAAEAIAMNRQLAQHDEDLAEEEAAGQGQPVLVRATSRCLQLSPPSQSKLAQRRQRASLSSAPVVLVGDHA

| IC50 [µM] | SMILES |
| --- | --- |
| 0.007 | Cc1cc(N=S(C)(C)=O)cc2ncnc(Nc3cccnc3OC3COCCOC3)c12 [Example 2.91] |
| 0.106 | CS(C)(=O)=Nc1cc(N2CCC2)c2c(Nc3ccc(F)cc3O[C@H]3CCOC3)ncnc2c1 [Example 1.19] |
| 0.021 | Cc1cc(N=S(C)(C)=O)cc2ncnc(Nc3ccccc3OC3CCOCC3)c12 [Example 1.12] |

biological target: MNK1a (Homo sapiens, UniProt Q9BUB5); test: MNK1 in vitro kinase assay (assay 2), Z'-LYTE; assay type: biochemical; settings: compound concentration of 1 μM
Sequence (Q9BUB5 1-424 isoform Q9BUB5-2): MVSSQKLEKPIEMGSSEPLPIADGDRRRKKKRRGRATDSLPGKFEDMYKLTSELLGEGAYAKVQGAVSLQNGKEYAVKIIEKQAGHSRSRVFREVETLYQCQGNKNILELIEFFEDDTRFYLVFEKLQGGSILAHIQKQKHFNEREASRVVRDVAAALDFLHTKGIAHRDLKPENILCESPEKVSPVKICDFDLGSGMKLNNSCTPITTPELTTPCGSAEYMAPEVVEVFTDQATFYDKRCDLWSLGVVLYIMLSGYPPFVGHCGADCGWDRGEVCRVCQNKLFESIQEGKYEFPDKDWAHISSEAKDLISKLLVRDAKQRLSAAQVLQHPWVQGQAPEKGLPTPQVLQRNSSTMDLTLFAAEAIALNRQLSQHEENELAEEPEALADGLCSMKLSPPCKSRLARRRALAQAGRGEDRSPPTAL
Excerpt: B. MNK1 In Vitro Kinase Assay (Assay 2)
MNK1 Data can be obtained from the MNK1 Z′-LYTE® assay. The MNK1 Z′-LYTE® screening protocol and assay conditions are also described on www.invitrogen.com.
The assay is described as follows:
The Z′-LYTE® biochemical assay employs a fluorescence-based, coupled-enzyme format and is based on the differential sensitivity of phosphorylated and non-phosphorylated peptides to proteolytic cleavage. The peptide substrate is labeled with two fluorophores—one at each end—that make up a FRET pair.
In the primary reaction, the kinase transfers the gamma-phosphate of ATP to a single tyrosine, serine or threonine residue in a synthetic FRET-peptide. In the secondary reaction, a site-specific protease recognizes and cleaves non-phosphorylated FRET-peptides. Phosphorylation of FRET-peptides suppresses cleavage by the Development Reagent. Cleavage disrupts FRET between the donor (i.e., coumarin) and acceptor (i.e., fluorescein) fluorophores on the FRET-peptide, whereas uncleaved, phosphorylated FRET-peptides maintain FRET. A ratiometric method, which calculates the ratio (the Emission Ratio) of donor emission to acceptor emission after excitation of the donor fluorophore at 400 nm, is used to quantitate reaction progress, as shown in the equation below. Emission Ratio=Coumarin Emission(445 nm)/Fluorescein Emission(520 nm)
ASSAY SETUP: The inhibition of kinase activity of MNK1a was assessed using pre-activated GST-MNK1a. The 2×MKNK1 (MNK1) mixture is prepared in 50 mM HEPES pH 7.5, 0.01% BRIJ-35, 10 mM MgCl2, 4 mM MnCl2, 1 mM EGTA, 2 mM DTT. The final 10 μL Kinase Reaction consists of 13.5-54 ng MKNK1 (MNK1) and 2 μM Ser/Thr 07 in 50 mM HEPES pH 7.5, 0.01% BRIJ-35, 10 mM MgCl2, 2 mM MnCl2, 1 mM EGTA, 1 mM DTT. After the 1 hour Kinase Reaction incubation, 5 μL of a 1:32768 dilution of Development Reagent A is added.
The Test Compounds are screened in 1% DMSO (final) in the well.
All Peptide/Kinase Mixtures are diluted to a 2× working concentration in the MNK1 Kinase Buffer.
All ATP Solutions are diluted to a 4× working concentration in Kinase Buffer (50 mM HEPES pH 7.5, 0.01% BRIJ-35, 10 mM MgCl2, 1 mM EGTA).
Development Reagent Solution:
The Development Reagent is diluted in Development Buffer
Bar-coded Corning, low volume NBS, 384-well plate (Corning Cat. #3676)
1. 2.5 μL-4× Test Compound
2. 5 μL-2× Peptide/Kinase Mixture
5. 60-minute Kinase Reaction incubation at room temperature
6. 5 μL-Development Reagent Solution
8. 60-minute Development Reaction incubation at room temperature
9. Read on fluorescence plate reader and analyze the data
The following equations are used for each set of data points: […]
Correction for Background Fluorescence: FSample−FITCFl Ctl
Emission Ratio (using values corrected for background fluorescence):Coumarin
Emission (445 nm)/Fluorescein Emission (520 nm)
% Phosphorylation (% Phos): 1−((Emission Ratio×F100%)−C100%)/((C0%−C100%)+[Emission Ratio×(F100%−F0%)])*100 % Inhibition: 1−(% PhosSample/% Phos0% Inhibition Ctl)*100 FI=Fluorescence Intensity C100%=Average Coumarin emission signal of the 100% Phos. Control C0%=Average Coumarin emission signal of the 0% Phos. Control F100%=Average Fluorescein emission signal of the 100% Phos. Control F0%=Average Fluorescein emission signal of the 0% Phos. Control Graphing Software
SelectScreen® Kinase Profiling Service uses XLfit from IDBS. The dose response curve is curve fit to model number 205 (sigmoidal dose-response model).

| inhibition at 1 µM [%] | SMILES |
| --- | --- |
| 60 | Cc1cc(N=S(C)(C)=O)cc2ncnc(Nc3ccc(F)cc3O[C@@H]3CCN(C(=O)OC(C)(C)C)C3)c12 [Example 2.52] |
| 93 | Cc1cc(N=S(C)(C)=O)cc2ncnc(Nc3cccnc3OC3COCCOC3)c12 [Example 2.91] |
| 92 | Cc1cc(N=S(C)(C)=O)cc2ncnc(Nc3ccccc3OC3CCOCC3)c12 [Example 1.12] |
| 80 | Cc1cc(N=S(C)(C)=O)cc2ncnc(Nc3ccc(Br)cc3OC3CCOCC3)c12 [Example 1.10] |
| 91 | Cc1cc(N=S(C)(C)=O)cc2ncnc(Nc3cccnc3O[C@@H]3CCCN(CC(C)(C)O)C3)c12 [Example 6.5] |
| 70 | CC(C)(O)CN1CCC[C@@H](Oc2ncccc2Nc2ncnc3cc(N=S(C)(C)=O)cc(F)c23)C1 [Example 6.19] |

The next lines start with the compound.

| SMILES | inhibition at 1 µM [%] |
| --- | --- |
| Cc1cc(N=S(C)(C)=O)cc2ncnc(Nc3ccc(F)cc3O[C@H]3CO[C@H]4[C@@H]3OC[C@H]4O)c12 [Example 2.19] | 47 |
| CS(C)(=O)=Nc1cc(N2CCC2)c2c(Nc3ccc(F)cc3O[C@H]3CCOC3)ncnc2c1 [Example 1.19] | 42 |
| Cc1cc(N=S2(=O)CCCC2)cc2ncnc(Nc3ccc(F)cc3O[C@H]3CCOC3)c12 [Example 2.85] | 100 |
| Cc1cc(N=S(C)(C)=O)cc2ncnc(Nc3ccc(F)cc3OC3CCOC3=O)c12 (centres unmarked) [Example 4.13] | 75 |
| COC(=O)N1CCS(=O)(=Nc2cc(C)c3c(Nc4ccc(F)cc4O[C@H]4CC[C@H](OC)CC4)ncnc3c2)CC1 [Example 7.3] | 72 |
| CO[C@H]1CC[C@H](Oc2cc(F)ccc2Nc2ncnc3cc(N=S(C)(C)=O)cc(F)c23)CC1 [Example 2.46] | 88 |
| CCS(=O)(CC)=Nc1cc(C)c2c(Nc3ccc(F)cc3O[C@@H]3CO[C@H]4[C@@H]3OC[C@H]4O)ncnc2c1 [Example 2.86] | 89 |
| Cc1cc(N=S2(=O)CCCC2)cc2ncnc(Nc3ccc(F)cc3O[C@@H]3CCNC3)c12 [Example 3.4] | 92 |
| COCCS(C)(=O)=Nc1cc(C)c2c(Nc3ccc(F)cc3O[C@H]3CCOC3)ncnc2c1 (some centres unmarked) [Example 2.63] | 85 |
| CC(C)(C)OC(=O)N1CC[C@@H](Oc2cc(F)ccc2Nc2ncnc3cc(N=S(C)(C)=O)cc(F)c23)C1 [Example 2.32] | 50 |
| Cc1cc(N=S2(=O)CCN(C(=O)OC(C)(C)C)CC2)cc2ncnc(Nc3ccc(F)cc3O[C@H]3CO[C@H]4[C@@H]3OC[C@H]4O)c12 [Example 2.21] | 81 |
